We go through 1 molecule from US6353007B1, “Substituted 1-(4-aminophenyl)indoles and their use as anti-inflammatory agents” (Boehringer Ingelheim Pharmaceuticals, Inc., priority 2000, dated 2002).

The assay concerns IL-2 promoter/enhancer. Briefly: IL-2 promoter assay (luciferase reporter, J.1F/C6 Jurkat cells, ionomycin and PMA induction). Format: cell-based. To be noted: Homo sapiens; J.1F/C6 Jurkat cell line; induction with ionomycin and PMA; read-out: IC50, inhibition of luciferase activity. An excerpt:
The IL-2 promoter assay measures transcriptional activation of a luciferase reporter gene which has been placed under control of the IL-2 promoter/enhancer. All the known regulatory features of the IL-2 gene are contained within a ˜300 bp sequence immediately upstream of the open reading frame. The region −328 to +35 relative to the transcription start site of the IL-2 gene is obtained by […] of human genomic DNA and is subcloned into the promoterless luciferase reporter vector pGL2-Basic (Promega). The resulting construct, pIL2P-luc, and a vector containing a neomycin resistance gene, pcDNA/Neo (Invitrogen), are linearized and stably transfected into Jurkat cells (a human T cell line) by electroporation.
For screening compounds, the cells are pelleted by centrifugation, washed once with PBS, resuspended in RPMI (phenol red-free) containing 5% FBS, and dispensed into 96-well, white microtiter plates (Packard) at 50,000 cells/well. The cells are pre-incubated with compounds (1 μg/ml) for 15 min prior to addition of ionomycin (1 μg/ml) and PMA (10 ng/ml) in a final volume of 100 μl. Following a 5 hr incubation at 37° C. in a humidified incubator, 100 μl of Luc-Lite lysis buffer/luciferase assay buffer (Promega) is added and luminescence measured using a Packard TopCount scintillation counter/luminometer.
(Reporter assays use an easily measured gene product as a stand-in for the process of interest.)

For the molecule `C=CC[C@@H]1/C=C(\C)C[C@H](C)C[C@H](OC)[C@H]2O[C@@](O)(C(=O)C(=O)N3CCCC[C@H]3C(=O)O[C@H](/C(C)=C/[C@@H]3CC[C@@H](O)[C@H](OC)C3)[C@H](C)[C@@H](O)CC1=O)[C@H](C)C[C@@H]2OC` [FK506], the half-inhibitory concentration (IC50) was 0.3 nM.

In general, IC50 refers to the point on the concentration scale where inhibition reaches its midpoint.
